In US12016858B2, “Methods for the treatment of abnormal involuntary movement disorders” (AUSPEX PHARMACEUTICALS, INC., priority 2015, dated 2024):

Tested on: subjects with manifest HD, chorea
Assay: ARC-HD open-label, single-arm study (Rollover and Switch cohorts)
Assay type: in vivo, human
Description: In a second clinical trial, a method for converting patients with adequate control of chorea with tetrabenazine to deutetrabenazine treatment was implemented. Alternatives for Reducing Chorea in Huntington Disease (ARC-HD) was an open-label, single-arm study in which subjects with manifest HD who were receiving FDA-approved doses of tetrabenazine for the treatment of chorea or had successfully completed First-HD were invited to participate. The study thus comprised two cohorts. […] Other key inclusion criteria for the study included: diagnosed with manifest HD, as indicated by characteristic motor examination features; a documented expanded cytosine adenine guanine (CAG) repeat (≥37) and Total Functional Capacity (TFC) score ≥5 at or before Screening; able to ambulate without assistance for at least 20 yards ([…] devices such as walker or cane permitted); and subject has a reliable caregiver who interacts with the subject on a daily basis, oversees study drug administration, assures attendance at study visits, and participates in evaluations, as required. Key exclusion criteria included serious untreated or undertreated psychiatric illness (e.g., depression) at Screening or Baseline; concomitant dopamine receptor antagonists, dopamine agonists, levodopa, reserpine, N-methyl-D-aspartate receptor antagonists, or monoamine oxidase inhibitors within 30 days of Screening or Baseline; and score ≥11 on the depression subscale of the Hospital Anxiety and Depression Scale (HADS), a score of ≥11 on the Swallowing Disturbance Questionnaire (SDQ), or a Unified Parkinson's Disease Rating Scale (UPDRS) dysarthria score of ≥3 at Screening or Baseline. The guidance for investigators on conversion of subjects from stable doses of tetrabenazine to deutetrabenazine in the ARC-HD Switch study was designed to minimize the risk that dose conversion would result in either loss of efficacy or increased adverse events. The conversion method applied was based on modeling and simulation of Phase 1 pharmacokinetic data for deutetrabenazine and tetrabenazine. The objective of the pharmacokinetic analysis was to identify an initial dosing regimen of deutetrabenazine predicted to provide exposure at steady state of the active α and β metabolites that was less than or equal to the predicted AUC at steady state of the active alpha and beta metabolites of tetrabenazine, but with a lower Cmax. Subjects in the Switch cohort completed a full screening evaluation. […] Subjects received existing tetrabenazine regimen through midnight of Day 0 and switched to their assigned deutetrabenazine regimen the next morning (Day 1 of the study). […] The investigator, in consultation with the subject and caregiver, determined when an adequate level of chorea control had been achieved. If a subject experienced a “clinically significant” adverse event attributable to deutetrabenazine, the investigator determined if a dose reduction or suspension was necessary. […] The deutetrabenazine dose for these subjects was titrated from a starting dose of 6 mg per day to a dose that controlled chorea and was well tolerated. For both cohorts, oral tablets at strengths of 6 mg, 9 mg, and 12 mg were used. Doses of 12 mg and higher were administered in two divided doses approximately 10 hours apart. All study treatment regimens were administered orally with meals. The maximum total daily dose of deutetrabenazine was set at 72 mg per day, unless the subject was receiving a strong CYP2D6 inhibitor (e.g., paroxetine), in which case the maximum total daily dose was 36 mg. Subjects attended regular clinic visits to evaluate safety and establish an optimal dose. The investigator, in consultation with the subject and caregiver, determined when an adequate level of chorea control was achieved; the dose of DTBZ could be increased on a weekly basis until there was adequate control of chorea, the subject experienced a protocol defined clinically significant adverse event, or the maximal allowable dose was reached. […]

In the case of [2H]C([2H])([2H])Oc1cc2c(cc1OC([2H])([2H])[2H])C1CC(=O)C(CC(C)C)CN1CC2 (stereo not drawn) [deutetrabenazine, (RR, SS)-1,3,4,6,7,11b-hexahydro-9,10-di(methoxy-d3)-3-(2-methylpropyl)-2H-benzo[a]quinolizin-2-one], the “subjects who experienced AEs” value (Rollover Cohort) is reported as 39 (52.0%) n (%), the “subjects who experienced serious AEs” value (Rollover Cohort) is reported as “Three” and the “subjects with an AE that led to a dose reduction or dose suspension” value (Rollover Cohort) is reported as “Five”. For the same compound, the “TEAE Anxiety” value (Rollover Cohort (N = 75)) was 3 (4.0) n (%), the “TEAE Constipation” value (Rollover Cohort (N = 75)) was 3 (4.0) n (%) and the “TEAE Depression” value (Rollover Cohort (N = 75)) was 8 (10.7) n (%). The “TEAE Diarrhoea” value (Rollover Cohort (N = 75)) was 4 (5.3) n (%), the “TEAE Disorientation” value (Rollover Cohort (N = 75)) was 0 n (%) and the “TEAE Dry mouth” value (Rollover Cohort (N = 75)) was 3 (4.0) n (%). For the same compound, the “TEAE Fall” value (Rollover Cohort (N = 75)) was 10 (13.3) n (%), the “TEAE Fatigue” value (Rollover Cohort (N = 75)) was 3 (4.0) n (%) and the “TEAE Insomnia” value (Rollover Cohort (N = 75)) was 6 (8.0) n (%). For the same compound, the “TEAE Irritability” value (Rollover Cohort (N = 75)) was 3 (4.0) n (%), the “TEAE Nasopharyngitis” value (Rollover Cohort (N = 75)) was 2 (2.7) n (%) and the “TEAE Sleep disorder” value (Rollover Cohort (N = 75)) was 3 (4.0) n (%). The “TEAE Somnolence” value (Rollover Cohort (N = 75)) was 6 (8.0) n (%), the “TEAE Vomiting” value (Rollover Cohort (N = 75)) was 3 (4.0) n (%) and the “subjects who experienced AEs” value (Rollover Cohort, Day 1 through Week 8) was 45.3%. The “TMC mean (SD) decrease from baseline” value (Rollover Cohort, Week 2) was 1.9 (3.0) units, the “Total Maximal Chorea Score, Mean (SD) Change from Baseline” value (Rollover Cohort, Week 2) was −1.9 (2.95) and the “Total Maximal Chorea Score, Mean (SD) Score” value (Rollover Cohort, Week 2) was 10.1 (3.41). The “Total Motor Score, Mean (SD) Change from Baseline” value (Rollover Cohort, Week 2) was −3.9 (6.67), the “Total Motor Score, Mean (SD) Score” value (Rollover Cohort, Week 2) was 32.4 (15.23) and the “mean decrease in TMS from baseline” value (Rollover Cohort, Week 2) was 3.9 units. For the same compound, the “Total Maximal Chorea Score, Mean (SD) Change from Baseline” value (Rollover Cohort, Week 4) was −2.5 (3.21), the “Total Maximal Chorea Score, Mean (SD) Score” value (Rollover Cohort, Week 4) was 9.8 (3.69) and the “Total Motor Score, Mean (SD) Change from Baseline” value (Rollover Cohort, Week 4) was −5.9 (7.88). The “Total Motor Score, Mean (SD) Score” value (Rollover Cohort, Week 4) was 32.1 (16.84), the “Total Maximal Chorea Score, Mean (SD) Change from Baseline” value (Rollover Cohort, Week 8) was −4.5 (3.34) and the “Total Maximal Chorea Score, Mean (SD) Score” value (Rollover Cohort, Week 8) was 7.9 (3.91). The “Total Motor Score, Mean (SD) Change from Baseline” value (Rollover Cohort, Week 8) was −8.3 (8.58), the “Total Motor Score, Mean (SD) Score” value (Rollover Cohort, Week 8) was 31.0 (18.07) and the “subjects who experienced AEs” value (Rollover Cohort, Week 8 through the visit cut-off date) was 43.2%. For the same compound, the “TMC mean (SD) decrease from baseline” value (Rollover Cohort, Week 15) was 4.5 (5.0) units, the “Total Maximal Chorea Score, Mean (SD) Score” value (Rollover Cohort, Week 15) was 7.9 (4.05) and the “Total Motor Score, Mean (SD) Change from Baseline” value (Rollover Cohort, Week 15) was −8.0 (8.41). For the same compound, the “Total Motor Score, Mean (SD) Score” value (Rollover Cohort, Week 15) was 30.5 (17.70), the “mean decrease in TMS from baseline” value (Rollover Cohort, Week 15) was 8.0 units and the “Total Motor Score, Mean (SD) Change from Baseline” value (Rollover Cohort, Week 15, listed as DTBZ) was −8.0. For the same compound, the “subjects with AEs assessed as mild or moderate in intensity” value (Rollover Cohort, of the 39 subjects with AEs) was 36 (92.3%) n (%), the tolerability (Rollover and Switch Cohorts) was “generally well tolerated” and the “subjects who experienced at least one AE” value (Switch Cohort) was 21 (56.8%) n (%). For the same compound, the “subjects who experienced serious AEs” value (Switch Cohort) was “Two”, the “subjects with an AE that led to a dose reduction or dose suspension” value (Switch Cohort) was “four” and the “withdrawal from the study due to an AE” value (Switch Cohort) was “no subjects withdrew”. The “TEAE Anxiety” value (Switch Cohort (N = 37)) was 3 (8.1) n (%), the “TEAE Constipation” value (Switch Cohort (N = 37)) was 2 (5.4) n (%) and the “TEAE Diarrhoea” value (Switch Cohort (N = 37)) was 2 (5.4) n (%). For the same compound, the “TEAE Disorientation” value (Switch Cohort (N = 37)) was 2 (5.4) n (%), the “TEAE Dry mouth” value (Switch Cohort (N = 37)) was 2 (5.4) n (%) and the “TEAE Fall” value (Switch Cohort (N = 37)) was 3 (8.1) n (%). For the same compound, the “TEAE Fatigue” value (Switch Cohort (N = 37)) was 1 (2.7) n (%), the “TEAE Insomnia” value (Switch Cohort (N = 37)) was 1 (2.7) n (%) and the “TEAE Irritability” value (Switch Cohort (N = 37)) was 2 (5.4) n (%). For the same compound, the “TEAE Nasopharyngitis” value (Switch Cohort (N = 37)) was 2 (5.4) n (%), the “TEAE Sleep disorder” value (Switch Cohort (N = 37)) was 0 n (%) and the “TEAE Somnolence” value (Switch Cohort (N = 37)) was 9 (24.3) n (%). The “TEAE Vomiting” value (Switch Cohort (N = 37)) was 1 (2.7) n (%), the “Total Maximal Chorea Score, Mean (SD) Score” value (Switch Cohort, Week 1) was 11.76 (5.11) and the “Total Motor Score, Mean (SD) Change from Baseline” value (Switch Cohort, Week 1) was −2.14 (5.414). The “Total Motor Score, Mean (SD) Score” value (Switch Cohort, Week 1) was 36.35 (18.043), the “Total Maximal Chorea Score, Mean (SD) Score” value (Switch Cohort, Week 4) was 11.86 (5.23) and the “Total Motor Score, Mean (SD) Change from Baseline” value (Switch Cohort, Week 4) was −1.85 (8.419). The “Total Motor Score, Mean (SD) Score” value (Switch Cohort, Week 4) was 37.14 (19.516), the “Total Maximal Chorea Score, Mean (SD) Change from Baseline” value (Switch Cohort, Week 8) was −1.9 and the “Total Maximal Chorea Score, Mean (SD) Score” value (Switch Cohort, Week 8) was 10.10 (5.56). For the same compound, the “Total Motor Score, Mean (SD) Score” value (Switch Cohort, Week 8) was 34.58 (18.268), the “Total Motor Score, Mean (SD) Change from Baseline” value (Switch Cohort, Week 8, listed as DTBZ) was −3.7 and the “Total Maximal Chorea Score, Mean (SD) Score” value (Switch Cohort, Week 15) was 10.87 (5.99). For the same compound, the “Total Motor Score, Mean (SD) Change from Baseline” value (Switch Cohort, Week 15) was −1.93 (10.910), the “Total Motor Score, Mean (SD) Score” value (Switch Cohort, Week 15) was 35.00 (22.984) and the “adverse events of chorea or worsening chorea” value (Switch Cohort, including first week after conversion from tetrabenazine) was “no adverse events of chorea or worsening chorea”. The “subjects with AEs assessed as mild to moderate in intensity” value (Switch Cohort, of the 21 subjects with AEs) was 20 (95.2%) n (%), the “mean change from baseline in swallowing disturbance (questionnaire)” value (patients switched from tetrabenazine to deutetrabenazine (FIG. 7)) was “trend toward improvement in swallowing” and the “overall analysis of the safety scales (UHDRS, SDQ, UPDRS dysarthria, BARS, HADS, ESS, C-SSRS, MoCA)” value (through Week 28) was “no increased risk”.
